Data from article PMC8187479, “Sugar phosphate activation of the stress sensor eIF2B” (Nature Communications, 2021).
“And” between values parts separate entries of the source, which are not always exact repeats. Identical values can stand only once.

What was measured:
eIF2Bα [1] = target: T1, eIF2Bα (Homo sapiens, UniProt Q14232); experiment: MIDAS (mass spectrometry integrated with equilibrium dialysis) metabolite binding screen; settings: for MIDAS result (enrichment in the protein chamber / hit status): eIF2Bα2, 50 μM per metabolite pool, 40 h dialysis at 4 °C
T1 construct: made in house; host or cells: E. coli BL21(DE3)
T1 sequence (Q14232 1-305): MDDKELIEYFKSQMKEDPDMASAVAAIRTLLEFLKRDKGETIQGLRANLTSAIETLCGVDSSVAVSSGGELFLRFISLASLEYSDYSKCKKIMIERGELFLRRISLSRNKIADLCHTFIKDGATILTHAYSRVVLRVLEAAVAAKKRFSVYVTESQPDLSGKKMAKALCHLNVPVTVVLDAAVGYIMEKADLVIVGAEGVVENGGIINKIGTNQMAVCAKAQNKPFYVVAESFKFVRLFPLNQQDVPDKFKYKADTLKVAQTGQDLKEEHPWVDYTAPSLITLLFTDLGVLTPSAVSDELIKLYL
How it was run: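 Hits called at Storey q < 0.1 on z-scores of PCA-corrected log2 fold change between protein and metabolite chambers, quantified by FIA-MS in triplicate.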

eIF2Bα [2] = target: T1, eIF2Bα; experiment: Differential scanning fluorimetry (Protein Thermal Shift), eIF2Bα Tm; type: binding; settings: individual replicates Rep 1-4, control without metabolite about 64.1
Procedure: The effect of metabolite binding on eIF2Bα Tm was assessed using the Protein Thermal Shift assay (Thermo Fisher), following manufacturer’s instructions. Briefly, reaction conditions for each 20 μL reaction were: 1.1 μg (1.5 μM) of eIF2Bα, 5 μl Thermal Shift buffer, 1X Thermal Shift dye, and metabolites in dose response. Reactions were run in 384-well format on a QuantStudio 6 Flex instrument (Thermo Fisher). The resulting melt curves were analyzed using Protein Thermal Shift Software, and eIF2Bα Tms for each condition were calculated by fitting to the Boltzmann function.

eIF2B = target: T2, eIF2B (Homo sapiens, UniProt P49770+Q14232+Q9UI10); experiment: eIF2B GEF activity assay, unbiased metabolite screen (Bodipy-FL-GDP release); type: biochemical; settings: 10 μM metabolite
T2 construct: made in house; host or cells: eIF2Bα: E. coli BL21(DE3)
Procedure: Bodipy-FL-GDP-loaded eIF2 was used as a substrate for recombinant eIF2B. The assay was performed in 384-well plates. Reactions were read on a SpectraMax i3x plate reader (Molecular Devices) using the instrument’s Softmax Pro software with the following parameters: plate temperature = 25 °C; excitation wavelength = 485 nm (15 nm width); emission wavelength = 535 nm (25 nm width); read duration = 30 min at 45 s intervals. Data were analyzed in Prism. GDP release half-lives were calculated by fitting single-exponential decay curves.
For unbiased screening, MIDAS metabolite libraries at 10 mM stock concentration were dispensed into wells of the assay plate using an Echo Acoustic Liquid Handler (Labcyte). […] A single well was run for each metabolite. […] For targeted experiments with HEK293T lysates, the following conditions were used: 50 nM Bodipy-FL-GDP-loaded eIF2, 0.1 mM GDP, 1 mg/ml BSA, 0.1 or 0.3 mg/ml lysates.

[3] = MIDAS screen, sheet eIF2Ba, metabolites screened in pools 1-4, p-value and q-value given
[4] = MIDAS metabolite binding screen with eIF2Bα, sheet "eIF2Ba"

T2 sequence (P49770 whole entry, one chain of several): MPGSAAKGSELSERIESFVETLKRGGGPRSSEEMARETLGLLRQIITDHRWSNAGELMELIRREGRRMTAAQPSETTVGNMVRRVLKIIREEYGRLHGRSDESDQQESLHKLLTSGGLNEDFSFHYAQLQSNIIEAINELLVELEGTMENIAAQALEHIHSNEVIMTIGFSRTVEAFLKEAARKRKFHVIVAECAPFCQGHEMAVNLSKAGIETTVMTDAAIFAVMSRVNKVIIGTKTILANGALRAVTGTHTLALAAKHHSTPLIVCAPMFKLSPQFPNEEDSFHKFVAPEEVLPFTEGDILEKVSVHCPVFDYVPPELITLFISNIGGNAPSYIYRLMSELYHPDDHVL
T2 sequence (Q9UI10 whole entry, one chain of several): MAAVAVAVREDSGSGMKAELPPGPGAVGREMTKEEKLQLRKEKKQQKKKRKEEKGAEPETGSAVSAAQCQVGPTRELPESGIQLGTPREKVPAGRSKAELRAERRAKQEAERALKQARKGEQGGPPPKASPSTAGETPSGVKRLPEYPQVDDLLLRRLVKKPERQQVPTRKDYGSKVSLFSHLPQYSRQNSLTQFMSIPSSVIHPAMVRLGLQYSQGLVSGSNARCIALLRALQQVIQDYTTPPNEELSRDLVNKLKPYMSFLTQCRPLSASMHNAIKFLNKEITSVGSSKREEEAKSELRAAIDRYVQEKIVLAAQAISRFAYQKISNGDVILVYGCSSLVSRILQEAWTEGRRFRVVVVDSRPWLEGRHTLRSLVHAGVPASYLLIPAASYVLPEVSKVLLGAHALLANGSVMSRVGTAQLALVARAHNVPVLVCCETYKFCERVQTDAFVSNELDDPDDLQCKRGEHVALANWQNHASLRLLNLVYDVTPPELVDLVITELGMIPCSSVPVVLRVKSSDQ
T2 sequence (Q9NR50 whole entry partner, one chain of several): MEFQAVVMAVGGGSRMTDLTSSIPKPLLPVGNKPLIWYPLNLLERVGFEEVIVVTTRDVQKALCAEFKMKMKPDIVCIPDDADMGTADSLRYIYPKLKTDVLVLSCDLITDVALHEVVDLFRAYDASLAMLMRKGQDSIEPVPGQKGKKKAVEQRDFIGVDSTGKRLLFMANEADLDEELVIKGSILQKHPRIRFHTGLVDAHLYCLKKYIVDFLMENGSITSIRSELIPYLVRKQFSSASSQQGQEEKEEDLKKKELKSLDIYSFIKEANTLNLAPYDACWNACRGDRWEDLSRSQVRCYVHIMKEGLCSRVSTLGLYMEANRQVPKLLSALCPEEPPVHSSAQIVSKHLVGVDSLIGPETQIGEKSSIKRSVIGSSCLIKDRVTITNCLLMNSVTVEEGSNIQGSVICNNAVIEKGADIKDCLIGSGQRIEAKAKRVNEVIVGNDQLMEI
T2 sequence (Q13144 whole entry partner, one chain of several): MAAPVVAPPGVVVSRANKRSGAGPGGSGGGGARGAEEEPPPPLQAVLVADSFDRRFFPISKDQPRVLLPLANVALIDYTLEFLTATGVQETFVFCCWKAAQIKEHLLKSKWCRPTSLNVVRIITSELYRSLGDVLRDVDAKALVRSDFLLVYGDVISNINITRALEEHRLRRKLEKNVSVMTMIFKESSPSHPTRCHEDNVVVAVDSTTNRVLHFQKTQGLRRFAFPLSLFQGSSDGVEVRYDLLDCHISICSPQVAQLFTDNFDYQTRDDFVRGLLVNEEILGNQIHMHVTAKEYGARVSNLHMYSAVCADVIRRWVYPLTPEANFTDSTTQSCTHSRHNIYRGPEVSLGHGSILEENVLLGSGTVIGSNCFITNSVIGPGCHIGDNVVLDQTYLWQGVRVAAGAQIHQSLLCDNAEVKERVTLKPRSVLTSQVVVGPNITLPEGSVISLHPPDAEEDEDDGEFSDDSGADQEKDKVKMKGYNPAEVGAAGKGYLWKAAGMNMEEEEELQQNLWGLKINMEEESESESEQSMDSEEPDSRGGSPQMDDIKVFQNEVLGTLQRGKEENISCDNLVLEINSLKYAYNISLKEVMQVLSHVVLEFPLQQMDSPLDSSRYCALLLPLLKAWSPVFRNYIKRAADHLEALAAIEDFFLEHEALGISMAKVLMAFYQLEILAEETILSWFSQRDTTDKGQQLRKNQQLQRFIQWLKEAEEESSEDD

Compound	log2(corrected fold change) (eIF2Bα [1]; [3])	log2(corrected fold change) (eIF2Bα [1]; [4])	also measured
N[C@@H](Cc1ccc(O)cc1)C(=O)O [L-tyrosine]	–	–	MIDAS result (enrichment in the protein chamber / hit status) (eIF2Bα [1]): most enriched metabolite identified; Tm of eIF2Bα (eIF2Bα [2]; 0.33 mM metabolite): 64.527 °C and 64.3045 °C and 63.9825 °C and 63.5986 °C; Tm of eIF2Bα (eIF2Bα [2]; 1 mM metabolite): 65.9465 °C and 65.8614 °C and 65.2637 °C and 64.606 °C; Tm of eIF2Bα (eIF2Bα [2]; 5 mM metabolite): 66.2946 °C and 66.2026 °C and 66.1461 °C and 65.4309 °C
O=C(COP(=O)(O)O)[C@@H](O)[C@H](O)[C@H](O)COP(=O)(O)O [Fructose-1,6-bisphosphate]	–	–	Tm of eIF2Bα (eIF2Bα [2]; 0.33 mM metabolite): 64.6451 °C and 64.2202 °C and 65.137 °C and 65.0552 °C; Tm of eIF2Bα (eIF2Bα [2]; 1 mM metabolite): 65.6845 °C and 64.643 °C and 66.191 °C and 66.0945 °C; Tm of eIF2Bα (eIF2Bα [2]; 3.3 mM metabolite): 65.4601 °C and 64.9088 °C and 65.6023 °C and 65.9064 °C; Tm of eIF2Bα (eIF2Bα [2]; 10 mM metabolite): 67.1254 °C and 66.1581 °C and 67.3047 °C and 67.21 °C
O=c1ccn([C@@H]2O[C@H](COP(=O)(O)O)[C@@H](O)[C@H]2O)c(=O)[nH]1 [UMP, Uridine monophosphate]	1.855	–	MIDAS result (enrichment in the protein chamber / hit status) (eIF2Bα [1]): a strong hit in MIDAS; effect on eIF2B GEF activity in the screen (eIF2B): a hit in this functional assay screen; Tm of eIF2Bα (eIF2Bα [2]; 0.33 mM metabolite): 64.124 °C and 63.8726 °C and 64.7063 °C and 64.4005 °C; Tm of eIF2Bα (eIF2Bα [2]; 1 mM metabolite): 65.4937 °C and 64.6631 °C and 66.2688 °C and 66.0835 °C; Tm of eIF2Bα (eIF2Bα [2]; 5 mM metabolite): 67.0947 °C and 66.2443 °C and 67.297 °C and 67.2174 °C
Glucose-6-phosphate	–	–	Tm of eIF2Bα (eIF2Bα [2]; 0.33 mM metabolite): 64.7198 °C and 64.0494 °C and 65.062 °C and 64.7755 °C; Tm of eIF2Bα (eIF2Bα [2]; 1 mM metabolite): 65.3152 °C and 64.2994 °C and 65.8081 °C and 65.8236 °C; Tm of eIF2Bα (eIF2Bα [2]; 3.3 mM metabolite): 65.2749 °C and 64.6195 °C and 65.7728 °C and 65.1105 °C; Tm of eIF2Bα (eIF2Bα [2]; 10 mM metabolite): 66.5112 °C and 65.3473 °C and 66.6482 °C and 66.6125 °C
O=C[C@H](O)[C@H](O)[C@H](O)COP(=O)(O)O [Ribose-5-phosphate]	–	–	Tm of eIF2Bα (eIF2Bα [2]; 0.33 mM metabolite): 63.6082 °C and 63.1309 °C and 63.9035 °C and 63.9145 °C; Tm of eIF2Bα (eIF2Bα [2]; 1 mM metabolite): 65.8453 °C and 64.5885 °C and 66.0863 °C and 66.0043 °C; Tm of eIF2Bα (eIF2Bα [2]; 3.3 mM metabolite): 65.9356 °C and 65.2316 °C and 66.3491 °C and 65.7067 °C; Tm of eIF2Bα (eIF2Bα [2]; 10 mM metabolite): 67.199 °C and 66.1831 °C and 67.4737 °C and 67.2666 °C
Nc1ncnc2c1ncn2[C@@H]1O[C@H](COP(=O)(O)OP(=O)(O)O)[C@@H](O)[C@H]1O [ADP, Adenosine diphosphate]	–	-0.09804	effect on eIF2B GEF activity in the screen (eIF2B): a hit in this functional assay screen
Cc1cc2nc3c(=O)[nH]c(=O)nc-3n(C[C@H](O)[C@H](O)[C@H](O)COP(=O)(O)OP(=O)(O)OC[C@H]3O[C@@H](n4cnc5c(N)ncnc54)[C@H](O)[C@@H]3O)c2cc1C [Flavin adenine dinucleotide]	–	-0.0588	–
OC[C@@H](O)[C@@H](O)[C@H](O)[C@@H](O)CO [D-Sorbitol]	0.05676	–	–
O=c1[nH]cnc2c1ncn2[C@H]1C[C@H](O)[C@@H](CO)O1 [2-Deoxyinosine]	0.06917	–	–
PIP2	0.1728	–	–
NCCc1ccccc1 [Phenethylamine]	–	-0.07261	–
CC(=O)N[C@H]1C(O)O[C@H](COP(=O)(O)O)[C@@H](O)[C@@H]1O (stereo partly drawn) [N-Acetyl-D-glucosamine 6-phosphate]	–	-0.009906	–
O=C(CO)[C@@H](O)[C@@H](O)CO [L-Ribulose]	-0.1354	–	–
NCCOP(=O)(O)O [O-Phosphorylethanolamine]	0.1876	–	–
Nc1ncnc2[nH]cnc12 [Adenine]	-0.2309	–	–
CC(=O)NCCCC[C@H](N)C(=O)O [Ne-Acetyl-lysine]	–	-0.03422	–
CCCCC[C@H](O)/C=C/[C@H]1C(=O)C[C@H](O)[C@@H]1C/C=C\CCCC(=O)O [Prostaglandin D2]	0.05625	–	–
O=C(O)/C=C(/CC(=O)O)C(=O)O [cis-Aconitic acid]	–	0.003317	–
COc1cccc(C(=O)O)c1N [2-Amino-3-methoxybenzoic acid]	-0.1539	–	–
OC[C@H]1O[C@H](OCC2O[C@@H](O)[C@H](O)[C@@H](O)[C@@H]2O)[C@H](O)[C@@H](O)[C@H]1O (stereo partly drawn) [Melibiose]	–	-0.003615	–
CC(CCC(=O)O)C(=O)O (stereo not drawn) [2-Methylglutaric acid]	-0.09665	–	–

Compound	log2(corrected fold change) (eIF2Bα [1]; [3])	log2(corrected fold change) (eIF2Bα [1]; [4])	also measured
OC[C@@H](O)[C@H](O)[C@@H](O)CO [Xylitol]	-0.08707	–	–
O=CC(=O)O [Glyoxylate]	–	-0.02095	–
Cc1ncc(C[n+]2csc(CCO[P@](=O)(O)OP(=O)(O)O)c2C)c(N)n1 [Thiamine pyrophosphate]	–	-0.008195	–
CC(=O)N[C@H]1[C@H]([C@H](O)[C@H](O)CO)OC(O)(C(=O)O)C[C@@H]1O (stereo partly drawn) [N-Acetylneuraminic acid]	–	-0.0313	–
N[C@@H](Cc1ccccc1)C(=O)O [L-Phenylalanine]	–	-0.04409	–
N[C@H](CC(=O)O)C(=O)O [D-Aspartate]	0.03257	–	–
CCC(O)C(=O)O (stereo not drawn) [2-Hydroxybutanoic acid]	0.07137	–	–
O=c1ccn([C@H]2C[C@H](O)[C@@H](COP(=O)(O)OP(=O)(O)OP(=O)(O)O)O2)c(=O)[nH]1 [dUTP]	-0.4569	–	–
Nc1nc2c(ncn2[C@@H]2O[C@H](COP(=O)(O)O)[C@@H](O)[C@H]2O)c(=O)[nH]1 [Guanosine 5-monophosphate]	1.415	–	–
OC[C@H]1O[C@H](O[C@H]2[C@H](O)[C@@H](O)[C@H](O)O[C@@H]2CO)[C@H](O)[C@@H](O)[C@@H]1O [D-Maltose]	–	-0.003614	–
O=P(O)(O)OCC1OC(OP(=O)(O)OP(=O)(O)O)C(O)C1O [5-Phospho-D-ribose 1-diphosphate]	–	0.1645	–
Cc1cc2nc3c(=O)[nH]c(=O)nc-3n(C[C@H](O)[C@H](O)[C@H](O)CO)c2cc1C [Riboflavin]	0.3728	–	–
NC(CCS)C(=O)O (racemic) [DL-Homocysteine]	–	-0.005857	–
PIP3	0.2943	–	–
CC(=O)O[C@H](CC(=O)[O-])C[N+](C)(C)C [O-Acetyl-L-carnitine]	-0.03661	–	–
CC(=O)N[C@H]1[C@@H](OP(=O)(O)OP(=O)(O)OC[C@H]2O[C@@H](n3ccc(=O)[nH]c3=O)[C@H](O)[C@@H]2O)O[C@H](CO)[C@@H](O)[C@@H]1O [UDP-GlcNAc]	–	-0.0409	–
O=C(CO)[C@@H](O)[C@@H](O)[C@H](O)COP(=O)(O)O [D-Tagatose 6-phosphate]	-0.01162	–	–
Nc1nc2c(ncn2[C@H]2C[C@H](O)[C@@H](CO)O2)c(=O)[nH]1 [2-Deoxyguanosine]	-0.1329	–	–
O=c1[nH]c(=O)c2nc[nH]c2[nH]1 [Xanthine]	-0.1163	–	–
C[N+](C)(C)CC=O [Betaine aldehyde]	-0.1426	–	–
O=C(CO)[C@@H](O)[C@H](O)COP(=O)(O)O [D-Xylulose 5-phosphate]	0.3189	–	–
